This passage reports IC50 results from ChEMBL document CHEMBL1132484, “New alpha-substituted succinate-based hydroxamic acids as TNFalpha convertase inhibitors” (J Med Chem, 1999).

For assay [1], the target named is T1, Disintegrin and metalloproteinase domain-containing protein 17 (Homo sapiens, UniProt P78536). Nature of the assay: Inhibition of TNF(tumor necrosis factor) in human blood. The class given is functional.
Assay [2] concerns the target T1, Disintegrin and metalloproteinase domain-containing protein 17. Description: Inhibitory activity against Tumor necrosis factor alpha-converting enzyme (TACE) in blood. The class given is tissue-based.
Assay [3] has as its target T2, Interstitial collagenase (Homo sapiens, UniProt P03956).
T2 sequence (P03956 whole entry): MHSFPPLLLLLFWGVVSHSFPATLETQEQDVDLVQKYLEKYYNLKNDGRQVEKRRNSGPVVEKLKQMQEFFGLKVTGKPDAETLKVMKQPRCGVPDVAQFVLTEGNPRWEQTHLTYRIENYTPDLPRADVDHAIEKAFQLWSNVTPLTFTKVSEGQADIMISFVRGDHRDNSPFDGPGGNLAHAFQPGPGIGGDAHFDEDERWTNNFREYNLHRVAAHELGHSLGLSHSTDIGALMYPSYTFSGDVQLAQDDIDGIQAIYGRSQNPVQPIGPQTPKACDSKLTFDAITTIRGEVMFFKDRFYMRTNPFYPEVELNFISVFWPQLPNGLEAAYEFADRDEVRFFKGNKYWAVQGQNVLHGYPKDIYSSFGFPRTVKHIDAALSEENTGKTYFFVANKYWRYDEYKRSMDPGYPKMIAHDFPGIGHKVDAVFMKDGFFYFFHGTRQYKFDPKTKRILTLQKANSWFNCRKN
Description: Inhibitory activity against MMP-1 (Matrix metalloprotease-1).

The target of assay [4] is Neutrophil collagenase (Homo sapiens, UniProt P22894). Description: Inhibition of MMP-8 (matrix metalloprotease-8).
Chain of Neutrophil collagenase (P22894 whole entry): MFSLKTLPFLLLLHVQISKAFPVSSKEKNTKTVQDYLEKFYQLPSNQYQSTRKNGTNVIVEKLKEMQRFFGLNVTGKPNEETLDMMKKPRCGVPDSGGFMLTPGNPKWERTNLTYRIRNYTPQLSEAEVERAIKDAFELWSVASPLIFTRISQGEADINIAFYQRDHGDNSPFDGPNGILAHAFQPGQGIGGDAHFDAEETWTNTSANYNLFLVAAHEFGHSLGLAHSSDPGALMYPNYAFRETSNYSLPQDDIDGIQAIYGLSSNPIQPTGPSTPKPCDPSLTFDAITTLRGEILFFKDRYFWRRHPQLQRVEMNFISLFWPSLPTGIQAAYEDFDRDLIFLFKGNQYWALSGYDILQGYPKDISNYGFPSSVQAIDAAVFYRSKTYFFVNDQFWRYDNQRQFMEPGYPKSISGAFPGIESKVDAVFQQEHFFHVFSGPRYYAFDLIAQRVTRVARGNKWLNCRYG

T1 sequence (P78536 whole entry, the tested form may be a part): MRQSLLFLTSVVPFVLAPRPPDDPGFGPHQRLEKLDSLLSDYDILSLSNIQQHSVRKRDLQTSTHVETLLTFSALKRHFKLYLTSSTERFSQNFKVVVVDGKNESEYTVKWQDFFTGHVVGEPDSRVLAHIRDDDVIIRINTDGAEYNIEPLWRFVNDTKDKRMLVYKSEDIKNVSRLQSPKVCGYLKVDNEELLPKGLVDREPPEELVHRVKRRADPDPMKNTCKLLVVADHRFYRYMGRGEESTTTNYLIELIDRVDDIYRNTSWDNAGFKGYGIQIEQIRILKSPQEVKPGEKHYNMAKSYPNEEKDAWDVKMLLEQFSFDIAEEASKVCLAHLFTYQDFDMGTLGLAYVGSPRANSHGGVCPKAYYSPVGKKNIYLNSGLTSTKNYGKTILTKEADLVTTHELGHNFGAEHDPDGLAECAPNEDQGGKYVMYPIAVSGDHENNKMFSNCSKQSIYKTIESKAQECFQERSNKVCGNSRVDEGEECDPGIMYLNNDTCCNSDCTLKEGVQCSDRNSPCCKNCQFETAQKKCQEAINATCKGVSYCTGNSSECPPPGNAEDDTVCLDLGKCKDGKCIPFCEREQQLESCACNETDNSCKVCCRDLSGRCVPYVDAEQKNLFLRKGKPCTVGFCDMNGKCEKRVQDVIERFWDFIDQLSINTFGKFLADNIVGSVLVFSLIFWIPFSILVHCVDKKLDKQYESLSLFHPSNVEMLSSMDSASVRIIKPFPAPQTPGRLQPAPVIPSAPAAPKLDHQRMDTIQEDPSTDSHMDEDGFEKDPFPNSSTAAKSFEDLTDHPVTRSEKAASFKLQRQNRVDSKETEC

For `CNC(=O)[C@@H](NC(=O)[C@H](CC(C)C)[C@H](NCc1ccc2ccccc2c1)C(=O)NO)C(C)(C)C`, the IC50 in assay [1] came to 6700 nM; in assay [2], 0.57 nM.
For the compound `CNC(=O)[C@@H](NC(=O)[C@H](CC(C)C)[C@H](OCc1ccc2nc(C)nc(O)c2c1)C(=O)NO)C(C)(C)C`, the IC50 in assay [1] turned out to be 2400 nM; in assay [2] it was 0.43 nM.
For `CNC(=O)[C@@H](NC(=O)[C@H](CC(C)C)[C@H](NS(=O)(=O)c1cccc2cnccc12)C(=O)NO)C(C)(C)C`, the half-inhibitory concentration (IC50) in assay [3] stood at 2.6 nM; in assay [1], 1100 nM; in assay [2], 3.1 nM.
Taken in the same sequence, the figures for `CNC(=O)[C@@H](NC(=O)[C@H](CC(C)C)[C@@H](C(=O)NO)N1CCOCC1)C(C)(C)C` were 2.2 nM, 3000 nM and 3.4 nM.
Taken in the same sequence, the figures for `CNC(=O)[C@@H](NC(=O)[C@H](CC(C)C)[C@H](NC(=O)c1cccc2cccnc12)C(=O)NO)C(C)(C)C` were 2.2 nM, 8000 nM and 2 nM.
For `CNC(=O)[C@@H](NC(=O)[C@H](CC(C)C)[C@H](OCc1ccc2c(ccc(=O)n2C)c1)C(=O)NO)C(C)(C)C`, the values for the IC50 in assay [3], in assay [1] and in assay [2] were 0.88 nM, 1440 nM and 1 nM, respectively.
For the compound `CNC(=O)[C@@H](NC(=O)[C@H](CC(C)C)[C@H](NS(=O)(=O)c1cccc2cccnc12)C(=O)NO)C(C)(C)C`, the IC50 turned out to be 1.1 nM in assay [3], 8100 nM in assay [1] and 4.2 nM in assay [2].
Taken in the same sequence, the figures for `CNC(=O)[C@@H](NC(=O)[C@H](CC(C)C)[C@H](SCc1cccc2cccnc12)C(=O)NO)C(C)(C)C` were 2.8 nM, 6200 nM and 0.8 nM.
In the case of `CNC(=O)[C@@H](NC(=O)[C@H](CC(C)C)[C@H](SC)C(=O)NO)C(C)(C)C`, the IC50 turned out to be 2300 nM in assay [1] and 1.6 nM in assay [2].
Take `CNC(=O)[C@@H](NC(=O)[C@H](CC(C)C)[C@H](OCCc1ccc2sc(C)nc2c1)C(=O)NO)C(C)(C)C`: the results for the IC50 in assay [1] and in assay [2] were 3500 nM and 0.21 nM, respectively.
For the compound `CNC(=O)[C@@H](NC(=O)[C@H](CC(C)C)[C@H](OCc1cccc2ccccc12)C(=O)NO)C(C)(C)C`, the IC50 in assay [1] came to 7600 nM; in assay [2], 0.33 nM.
In the case of `CNC(=O)[C@@H](NC(=O)[C@H](CC(C)C)[C@H](NS(=O)(=O)c1ccc2ncnc(O)c2c1)C(=O)NO)C(C)(C)C`, the IC50 came out at 3.7 nM in assay [4], 1.3 nM in assay [3], 280 nM in assay [1] and 0.57 nM in assay [2].
For `CNC(=O)[C@@H](NC(=O)[C@H](CC(C)C)[C@@H](C(=O)NO)N(C)S(=O)(=O)c1cccc2cccnc12)C(C)(C)C`, the IC50 amounted to 2.4 nM in assay [3], 4500 nM in assay [1] and 4.4 nM in assay [2].
As for `CNC(=O)[C@@H](NC(=O)[C@H](CC(C)C)[C@H](OCc1ccc2ccccc2c1)C(=O)NO)C(C)(C)C`, the IC50 in assay [1] came to 7300 nM; in assay [2], 0.6 nM.
On to `CNC(=O)[C@@H](NC(=O)[C@H](CC(C)C)[C@H](NS(=O)(=O)c1ccc2ncccc2c1)C(=O)NO)C(C)(C)C`, for which the IC50 in assay [3] was determined as 1.2 nM; in assay [1], 440 nM; in assay [2] it was 1.6 nM.
As to `CNC(=O)[C@@H](NC(=O)[C@H](CCCOCc1ccccc1)[C@H](OCc1ccc2nc(C)nc(O)c2c1)C(=O)NO)C(C)(C)C`, the IC50 in assay [3] amounted to 330 nM; in assay [2], 12 nM.
Regarding `CNC(=O)[C@@H](NC(=O)[C@H](CC(C)C)[C@H](NCc1cccc2cccnc12)C(=O)NO)C(C)(C)C`, the IC50 was determined as 0.2 nM in assay [4], 1.7 nM in assay [3], 34000 nM in assay [1] and 0.23 nM in assay [2].
Take `CNC(=O)[C@@H](NC(=O)C(CC(C)C)C(NCc1ccccc1)C(=O)NO)C(C)(C)C` (single isomer, unassigned): the results for the IC50 in assay [1] and in assay [2] were 6100 nM and 2.8 nM, respectively.
Regarding `CNC(=O)[C@@H](NC(=O)C(CC(C)C)C(C(=O)NO)C1CCCC1)C(C)(C)C` (single isomer, unassigned), the IC50 in assay [4] turned out to be 20 nM; in assay [3] it was 4 nM; in assay [1], 8800 nM; in assay [2], 1 nM.
For the compound `CNC(=O)[C@@H](NC(=O)C(CC(C)C)C(C(=O)NO)N(C)S(=O)(=O)c1ccccc1)C(C)(C)C` (single isomer, unassigned), the results for the IC50 in assay [3], in assay [1] and in assay [2] were 1.5 nM, 3000 nM and 0.61 nM, respectively.
For `CNC(=O)[C@@H](NC(=O)C(CC(C)C)C(NS(=O)(=O)c1ccccc1)C(=O)NO)C(C)(C)C` (single isomer, unassigned), the IC50 in assay [1] was 1300 nM; in assay [2] it was 1.5 nM.
As to `CNC(=O)[C@@H](NC(=O)C(CC(C)C)C(OCc1cc2c(=O)[nH]c(C)nc2cc1Br)C(=O)NO)C(C)(C)C` (single isomer, unassigned), the IC50 was found to be 4300 nM in assay [1] and 0.33 nM in assay [2].
For `CNC(=O)[C@@H](NC(=O)C(CC(C)C)C(NS(=O)(=O)c1ccc(NC(C)=O)cc1)C(=O)NO)C(C)(C)C` (single isomer, unassigned), in that order: 1200 nM and 1.3 nM.
For `CNC(=O)[C@@H](NC(=O)C(CC(C)C)C(NS(=O)(=O)c1ccc(Br)cc1)C(=O)NO)C(C)(C)C` (single isomer, unassigned), in that order: 4400 nM and 1.4 nM.
In the case of `C=CCC(C(=O)NO)C(CC(C)C)C(=O)N[C@@H](Cc1ccccc1)C(=O)NC` (single isomer, unassigned), the IC50 in assay [4] is 3 nM; in assay [1], 2300 nM; in assay [2], 0.2 nM.
With `CNC(=O)[C@@H](NC(=O)C(CC(C)C)C(NS(=O)(=O)c1cc(Cl)cc(Cl)c1)C(=O)NO)C(C)(C)C` (single isomer, unassigned), the results for the IC50 in assay [1] and in assay [2] were 11300 nM and 1 nM, respectively.
For `CC1(C)SCCN(S(=O)(=O)c2ccc(Oc3ccncc3)cc2)[C@H]1C(=O)NO` [PRINOMASTAT], in that order: 16600 nM and 5.5 nM.
Consider `CNC(=O)[C@@H](NC(=O)[C@@H](CC(=O)NO)CC(C)C)C(C)(C)C` [RO-319790], for which the IC50 was 10 nM in assay [3], over 50000 nM in assay [1] and 20 nM in assay [2].

For orientation: IC50 means the midpoint of a concentration-inhibition curve.
